Test results as given in ChEMBL document CHEMBL5209588, “Membrane potential based assay for SLC6A9 using HEK-293 SLC6A9 OE cells” (2022).

Molecular target: T1, Sodium- and chloride-dependent glycine transporter 1 (Homo sapiens, UniProt P48067)
T1 sequence (P48067 whole entry): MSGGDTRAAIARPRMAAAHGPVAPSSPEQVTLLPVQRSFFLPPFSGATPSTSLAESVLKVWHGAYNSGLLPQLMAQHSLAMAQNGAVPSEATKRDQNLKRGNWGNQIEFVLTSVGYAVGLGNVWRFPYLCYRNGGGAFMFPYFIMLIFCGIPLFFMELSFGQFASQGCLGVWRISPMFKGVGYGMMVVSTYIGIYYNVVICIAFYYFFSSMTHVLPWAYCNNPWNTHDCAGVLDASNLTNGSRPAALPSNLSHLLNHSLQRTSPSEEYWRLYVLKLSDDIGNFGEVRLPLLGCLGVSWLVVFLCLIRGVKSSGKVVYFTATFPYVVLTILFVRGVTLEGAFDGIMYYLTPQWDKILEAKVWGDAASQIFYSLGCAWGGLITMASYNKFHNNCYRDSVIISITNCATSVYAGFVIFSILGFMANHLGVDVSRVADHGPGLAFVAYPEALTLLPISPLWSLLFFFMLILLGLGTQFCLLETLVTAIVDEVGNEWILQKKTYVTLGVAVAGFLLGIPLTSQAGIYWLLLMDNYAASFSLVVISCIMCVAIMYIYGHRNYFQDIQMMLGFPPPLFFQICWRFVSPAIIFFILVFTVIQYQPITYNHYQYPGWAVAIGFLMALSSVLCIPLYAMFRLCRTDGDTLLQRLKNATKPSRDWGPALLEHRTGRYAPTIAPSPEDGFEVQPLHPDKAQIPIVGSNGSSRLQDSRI
Description: Substrate uptake and inhibition of the Glycine Transporter-1 (GlyT1, SLC6A9) as assessed by the fluorescent FLIPR membrane potential dye in HEK-293 JumpIN-SLC6A9 cells (PubChem AID: 1794809)

With `NCC(=O)O` [GLYCINE] the EC50 was 106 µM.
